Test results from EP1170012A1, “CEREBROVASCULAR REGENERATION/RECONSTRUCTION PROMOTERS AND NERVE TISSUE SECONDARY DEGENERATION INHIBITORS COMPRISING GINSENOSIDE RB 1?” (priority 1999, dated 2000).
Like-named read-outs stand apart in the source and are kept apart here. Marks after values point to notes of the source that are not given here.

Columns and labels:
[1] = system: rats; details: rat, in vivo; cited from earlier work
[2] = system: cultured nerve cells; details: 1 - 100 fg/ml in culture medium; cited from earlier work
[3] = in vivo, po; cited from earlier work
[4] = system: gerbils; details: cited from earlier work
[5] = system: normal cultured nerve cells or neurons; details: cited from earlier work
[6] = system: SH-SP rats; format: in vivo; details: for learning disability in the water maze tests: also 1st day at the 4th week
Description: (§1) First, we examined the actions of intravenous infusion of ginsenoside Rb1. For this purpose, for example, male SH-SP rats, weighing 250 - 300 g at the age of 12-13 weeks were used. The animals were bred in an air-conditioned room with a 12:12 hour light-dark cycle, and water and feeds were supplied ad libitum. The cortical branch of the left middle cerebral artery (MCA) was coagulated and cut under inhalation anesthesia.
After MCA permanent occlusion, according to the method of the inventors of the present invention (Sakanaka and Tanaka) (Igase, K. et al., J. Cereb. Blood Flow Metab., 19, 298-306, 1999; Zhang B. et al., J. Stroke Cerebrovasc. Dis., 7, 1-9, 1998), water maze tests were performed for 4 days at the 2nd week and the 4th week, respectively, and the place navigation abilities of SH-SP rats were determined.
(§2) Male SH-SP rats, at the age of 12-13 weeks, (stroke-prone spontaneously hypertensive rat: weighing 250 - 300 g), were used. Animals were housed in an air-conditioned room furnished with a 12:12 hour light-dark cycle, and water and feeds were supplied ad libitum. The mean blood pressure of the animals was 203±6.9 mmHg. The following experiments were conducted in accordance with the Guide for Animal Experimentation at Ehime University School of Medicine. The cortical branch of the left middle cerebral artery (MCA) of SH-SP rats were coagulated and cut, while their rectal temperature was maintained at 37±0.2°C under inhalation anesthesia.
Immediately after MCA permanent occlusion, […] of physiological saline containing ginsenoside Rb1 at a concentration of 1µg/µl or 0.1µg/µl (60µg or 6µg as ginsenoside Rb1) was injected once into the left femoral vein. Then a catheter connected to the Alza osmotic minipump implanted subcutaneously in the back of each animal was inserted into the same vein from the point of the single injection of ginsenoside Rb1. Physiological saline containing ginsenoside Rb1 was filled in advance in the said osmotic minipump, and ginsenoside Rb1 in a dose of 60µg/day or 6µg/day was continuously infused into the blood stream through the catheter placed in the left femoral vein for 28 days. Flow rate of the ginsenoside Rb1-containing solution was 0.25µl/hour. Control animals with MCA permanent occlusion (ischemic control animals) and sham-operated animals received the same amount of physiological saline.
After the MCA permanent occlusion according to the method of the inventors of the present invention (Sakanaka and Tanaka) (Igase, K. et al., J. Cereb. Blood Flow Metab., 19, 298-306, 1999; Zhang B. et al., J. Stroke Cerebrovasc. Dis., 7, 1-9, 1998), water maze tests were performed for 4 days at the 2nd week and the 4th week, respectively, and place navigation abilities of the SH-SP rats were determined.

[7] = system: glutamate-mediated neurotoxicity; details: cited from earlier work
[8] = system: SH-SP rats; assay: Ratio of cerebrovascular area in the non-infarcted ischemic penumbra of the parietal lobe; format: in vivo; details: for ischemic side (%), ratio of the cerebrovascular area: non-infarcted ischemic penumbra; for ischemic side (%), ratio of the cerebrovascular area / intact side (%), ratio of the cerebrovascular area: mean ± SE, N = 5; for intact side (%), ratio of the cerebrovascular area: per 1.27 mm^2
Text: Next, we prepared paraffin sections, 5 µm thickness, obtained from brain samples at the level about 2.8 mm posterior to the bregma. Then, we measured the cerebrovascular area per 1.27 mm^2 of the non-infarcted ischemic penumbra in the parietal lobe. This was done for each of the cerebral hemisphere of a group to which ginsenoside Rb1 had been administered intravenously (i.e. the brain tissues had been rescued by administration of ginsenoside Rb1) (Fig. 5). Four sheets of differential interference contrast micrograph were used for measurement (Fig. 6), and the ratio of the cerebrovascular area was calculated (Table 1).
The isolated brain was embedded in paraffin, and paraffin sections, 5µm thick, at the level approximately 2.8 mm posterior to bregma including the cerebrocortical infarct lesion were prepared. Then, we measured the cerebrovascular area per 1.27 mm^2 of the ischemic penumbra rescued by intravenous administration of ginsenoside Rb1. This was done for each of the cerebral hemispheres of the groups to which ginsenoside Rb1 had been administered intravenously (i.e. the brain tissues had been rescued by administering ginsenoside Rb1) (Fig. 5). Four sheets of differential interference contrast micrograph were used for measurement (Fig. 6), and the ratio of the cerebrovascular area was calculated (Table 1). The ratio of cerebrovascular area was also measured in the control hemisphere (intact side).
Fig. 5 is a drawing showing the region for measurement of blood vessel area in the non-infarcted ischemic penumbra of the parietal lobe in a 5µm thick section of the brain. In Fig. 5, the part enclosed with a rectangle is the region for measurement of blood vessel area: cerebrocortical layers II - IV of the parietal lobe; the part painted with black in Fig. 5 is the infarct lesion when ginsenoside Rb1 was administered; and the part shown in gray in Fig. 5 is the infarcted lesion when physiological saline was administered.
Data are represented by mean ± SE. Statistical analyses are conducted by ANOVA + Fisher's PLSD. N = 5.

[9] = system: SH-SP rats; assay: Secondary degeneration of the thalamus: thalamic area ratio and nerve cell count in the VP thalamic nucleus; format: in vivo; details: mean ± SE; for ratio of area (%), left thalamic area to right thalamic area: ischemic side/intact side × 100, p < 0.05; for count of nerve cells: per 0.099 mm^2 of the ventral posterior nucleus of the thalamus, p < 0.01
Description: Further, paraffin sections prepared from brain samples at the level 3.6 mm posterior to bregma were subjected to Nissl staining, and the ratio of the left thalamic area to the right thalamic area (ischemic side/intact side × 100) at the same level was measured. […] In addition, we have investigated the histological patterns of the ventral posterior nucleus of the thalamus (VP thalamic nucleus) which has reciprocal synaptic connections (fiber connections) with the ischemic core of the cerebral cortex. […] […] Data are represented as mean ± SE. Statistical analyses were conducted by Mann-Whitney U-test. In Table 2, *: p < 0.05, **: p < 0.01.

[10] = system: lipid peroxides; details: cited from earlier work
[11] = system: SH-SP rats; assay: Ratio of cerebrocortical infarction after MCA permanent occlusion, intravenous infusion; format: in vivo
Description: as §1
After the water maze tests at the 4th week, the SH-SP rats were anesthetized with chloral hydrate, and they were perfused and fixed transcardially with 0.1 mole phosphate buffer containing 4% paraformaldehyde. The brains were dissected out and cerebrocortical infarcted areas were photographed. Areas of the left cerebral hemispheres and the left cerebrocortical infarct lesions were measured on the photographs by using an image analysis device. The left cerebrocortical infarcted areas were divided by the left cerebral hemispheric areas to calculate ratios of the cerebrocortical infarction (%).
as §2, with “anesthesia. […]” for “anesthesia.”
After termination of the water maze tests at the 4th week, the SH-SP rats were anesthetized with chloral hydrate, and they were perfused and fixed transcardially with 0.1 mole phosphate buffer containing 4% paraformaldehyde. […] Areas of the left cerebral hemispheres and the left cerebrocortical infarct lesions were measured on the photographs by using an image analysis device. […]

[12] = system: rats; details: rat, in vivo
Text: It has also been reported that no effects of intracerebroventricular administration of ginsenoside Rb1 on brain temperature, cerebral blood flow and blood pressure are observed (Lim J.-H. et al. Neurosci. Res., 28, 191-200, 1997; Zhang B. et al., J. Stroke Cerebrovasc. Dis., 7, 1-9, 1998).

[13] = system: SH-SP) rats; details: cited from earlier work
[14] = system: Bcl-XL; details: 1 fg/ml to 100 fg/ml; cited from earlier work
[15] = in vivo; cited from earlier work
[16] = system: apoptosis-like nerve cell death; details: 1 fg/ml to 100 fg/ml; cited from earlier work
[17] = system: Wistar rats
Description: We used Wistar rats, (weighing about 300 g), which were loaded with 20 g of compression to the lower thoracic cord for 20 minutes, as an animal model for spinal cord injuries. The rats were anesthetized by inhalation of halothane in a mixture of nitrous oxide and oxygen and were loaded with 20 g of compression to the lower thoracic cord for 20 minutes. More than 30 minutes later, ginsenoside Rb1 dissolved in physiological saline was infused once into the left femoral vein (12 µg or 60 µg). Subsequently continuous intravenous administration of ginsenoside Rb1 was performed for 7 days by using an Alza osmotic minipump (12µg/day or 60µg/day). Control animals' and sham-operated animals were administered with the same amount of physiological saline (vehicle). The open field locomotor scores [Basso, Bettie and Bresnakan (BBB) scores] were measured before the loading of spinal cord injury, on the day of spinal cord injury, and from the 1st day to the 7th day after spinal cord injury in order to determine an index of motor functions (Basso D.M. et al., J. Neurotrauma, 13, 343-359, 1996). […] The rats were anesthetized with inhalation of halothane in a mixture of nitrous oxide and oxygen and were loaded with 20 g of compression to the lower thoracic cord for 20 minutes. More than 30 minutes later, ginsenoside Rb1 dissolved in physiological saline was injected once into the left femoral vein (12µg or 60µg), thereafter continuous intravenous administration of ginsenoside Rb1 was performed for 7 days by using an Alza osmotic minipump (12µg/day or 60µg/day). Control animals and sham-operated animals were administered with the same amount of physiological saline (vehicle). The open field locomotor scores [Basso, Bettie and Bresnakan (BBB) scores] were measured before loading spinal cord injury, on the day of spinal cord injury and from the 1st day to the 7th day after the spinal cord injury for use as an index of motor functions (Basso D.M. et al., J. Neurotrauma, 13, 343-359, 1996).

[18] = 6µg/day intravenous for 28 days after MCA permanent occlusion
[19] = 60µg/day intravenous for 28 days after MCA permanent occlusion

CC(C)=CCC[C@](C)(O[C@@H]1O[C@H](CO[C@@H]2O[C@H](CO)[C@@H](O)[C@H](O)[C@H]2O)[C@@H](O)[C@H](O)[C@H]1O)[C@H]1CC[C@]2(C)[C@@H]1[C@H](O)C[C@@H]1[C@@]3(C)CC[C@H](O[C@@H]4O[C@H](CO)[C@@H](O)[C@H](O)[C@H]4O[C@@H]4O[C@H](CO)[C@@H](O)[C@H](O)[C@H]4O)C(C)(C)[C@@H]3CC[C@]12C [ginsenoside Rb1, Ginsenoside Rb1]
brain temperature, cerebral blood flow and blood pressure [1]: no effects | neuronal necrosis caused by ferrous sulfate [2]: reduces neuronal necrosis | detection in blood [3]: can not be detected in blood | delayed neuronal death and learning disability ([4]; intracerebroventricular infusion starting immediately after 3 or 3.5 minutes carotid occlusion): suppresses the delayed neuronal death and learning disability | hippocampal CA1 pyramidal neurons rescued ([4]; intraperitoneal 10 mg/kg/day or 20 mg/kg/day before ischemic loading): about 30% | delayed neuronal death and learning disability ([4]; intraperitoneal 10 or 20 mg/kg/day once a day for one week in advance, 5 minutes carotid occlusion): significantly prevent | effect of administration after the ischemic insult ([4]; intraperitoneal, after the ischemic insult): no effect | normal metabolic activity of cultured nerve cells [5]: no effect on normal metabolic activity | SNP-induced injuries ([5]; low extracellular concentrations (1 - 100 fg/ml)): protects only nerve cells against SNP-induced injuries | place navigation disability after MCA permanent occlusion ([6]; 6µg/day or 60µg/day intravenous, compared with physiological saline group): significantly improved | learning disability in the water maze tests ([6]; high dose (60µg/day), 4th day at the 2nd week, 3rd and 4th days at the 4th week): significantly ameliorated | learning disability in the water maze tests ([6]; low dose (6µg/day), 3rd and 4th day at the 2nd and 4th week): significantly ameliorated | swimming speed of SH-SP rats ([6]; rat, in vivo): No significant differences | neurotoxicity [7]: increased neurotoxicity | glutamate-mediated neurotoxicity ([7]; high concentrations (0.11-11 µg/ml)): reduce glutamate-mediated neurotoxicity | ratios of the cerebrovascular areas, control side versus ischemic side ([8]; 6µg/day and 60 µg/day intravenous, 28 days after MCA permanent occlusion): no significant difference | ischemic side (%), ratio of the cerebrovascular area [8, 18]: 8.0 ± 0.58% | intact side (%), ratio of the cerebrovascular area [8, 18]: 7.0 ± 0.64% | ischemic side (%), ratio of the cerebrovascular area [8, 19]: 9.0 ± 0.52% | intact side (%), ratio of the cerebrovascular area [8, 19]: 8.3 ± 0.92% | ratio of area (%), left thalamic area to right thalamic area ([9]; 6µg/day intravenous): 95.9 ± 3.3* % | count of nerve cells ([9]; 6µg/day intravenous): 30.6 ± 2.9** | ratio of area (%), left thalamic area to right thalamic area ([9]; 60µg/day intravenous): 95.3 ± 2.4* % | count of nerve cells ([9]; 60µg/day intravenous): 31.5 ± 3.6** | formation of lipid peroxides ([10]; 100 fg/ml): slightly suppressive action | formation of lipid peroxides ([10]; lower concentration range than 100 fg/ml): no such effect was observed | ratio of cerebrocortical infarction ([11]; 6µg/day or 60µg/day intravenous for 28 days, compared with physiological saline group): significantly reduced | mean value of the ratio of cerebrocortical infarction compared with that of the physiological saline group ([11]; groups intravenously administered, about 50% or less): ≤ 50% | actual volume of infarction relative to physiological saline group ([11]; intravenous administration, inferred from the area ratio): about 1/4 | adverse effects [12]: No adverse effects were detected | effect on cerebral infarction ([13]; continuous intracerebroventricular infusion 0.6µg/day after MCA occlusion): significant suppressive effect | effect on cerebral infarction ([13]; continuous intracerebroventricular infusion 6µg/day or 0.06µg/day after MCA permanent occlusion): no therapeutic effect | expression of Bcl-XL [14]: increasing the expression | transfer to the central nervous system [15]: transferred rapidly | apoptosis-like nerve cell death [16]: suppresses apoptosis-like nerve cell death | motor ability (BBB scores) ([17]; 12µg/day or 60µg/day intravenous, 7th day after spinal cord injuries, dose-dependent): significantly ameliorated | paraplegia of both hindlimbs ([17]; 60 µg/day intravenous after 20 g compression for 20 minutes, after 2 days): significantly ameliorated | wound healing of the dorsal skin incision ([17]; rat, in vivo): no such adverse effects were noted
